According to patent US7160892B2, “Pyrimidone compounds and pharmaceutical compositions containing the same” (Eisai Co., Ltd., priority 2001, dated 2007):

Experiments:
[1] = target: T1, human adenosine A2B receptor (Homo sapiens, UniProt P29275); assay: Inhibition of NECA-stimulated production of cAMP in adenosine A2B receptor-expressing cells; assay type: cell-based; conditions: read-out: I C50(nM) A2B
T1 construct: expressed in transfected cells; host or cells: CHOK1 cells
T1 sequence (P29275 1-332): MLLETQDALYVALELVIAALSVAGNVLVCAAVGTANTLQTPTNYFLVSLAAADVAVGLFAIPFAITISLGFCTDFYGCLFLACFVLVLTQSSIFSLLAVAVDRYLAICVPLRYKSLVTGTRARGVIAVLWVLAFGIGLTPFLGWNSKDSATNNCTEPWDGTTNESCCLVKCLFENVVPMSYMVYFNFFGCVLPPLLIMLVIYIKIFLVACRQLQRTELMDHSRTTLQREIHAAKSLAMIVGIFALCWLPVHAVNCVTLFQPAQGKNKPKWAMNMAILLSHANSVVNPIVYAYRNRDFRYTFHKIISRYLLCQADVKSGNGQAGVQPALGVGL
Procedure: Experiment of Inhibition of NECA-Stimulated Production of cAMP in Adenosine A2B Receptor-Expressing Cells
CHOK1 cells where human adenosine A2B receptor had been expressed in excess were plated onto a 24-well plate at a density of 1.5×10^5 cells/well, cultured overnight, and used in the experiment. […] That is, the adhering cells were washed twice with 2 ml/well Krebs-Ringer buffer solution (containing 0.1% BSA; pH 7.4) and pre-incubated for 30 minutes in a volume of 0.5 ml/well. […] After pre-incubation for 15 minutes, the reaction was terminated with 0.1 N HCl in a volume of 300 μl/well. Measurement of intracellular cAMP was carried out using a cAMP enzyme immunoassay kit produced by Amersham.

adenosine A2A receptor = target: T2, adenosine A2A receptor (Homo sapiens, UniProt P29274); assay: Measurement of the binding ability to adenosine A2A receptor (3H-CGS21680 displacement, membrane sample); conditions: read-out: K1(nM) A2A
T2 construct: purchased Receptor Biology Inc
T2 sequence (P29274 whole entry): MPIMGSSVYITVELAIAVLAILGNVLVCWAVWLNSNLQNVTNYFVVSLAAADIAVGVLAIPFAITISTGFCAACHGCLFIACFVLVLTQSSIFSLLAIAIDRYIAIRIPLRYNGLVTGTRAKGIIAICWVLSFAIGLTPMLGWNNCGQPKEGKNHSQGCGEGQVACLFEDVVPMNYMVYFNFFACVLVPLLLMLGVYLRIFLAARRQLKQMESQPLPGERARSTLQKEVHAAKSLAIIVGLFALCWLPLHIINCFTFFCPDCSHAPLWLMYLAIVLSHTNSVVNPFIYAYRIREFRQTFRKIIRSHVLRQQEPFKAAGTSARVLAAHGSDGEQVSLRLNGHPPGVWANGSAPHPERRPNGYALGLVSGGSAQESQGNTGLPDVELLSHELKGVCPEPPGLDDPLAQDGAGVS
Procedure: Measurement of the Binding Ability to Adenosine A2A Receptor
An experiment of inhibition of binding to adenosine A2A receptor was conducted using a membrane sample (Receptor Biology Inc.) where an adenosine A2A receptor cDNA was expressed in excess. This membrane sample was suspended at a protein concentration of 22.2 μg/ml in 20 mM HEPES buffer, pH 7.4 (10 mM MgCl2 and 100 mM NaCl). To 0.45 ml of this membrane sample suspension were added 0.025 ml of 500 nM tritium-labeled 2-p-[2-carboxyethyl]phenetylamino-5′-N-ethylarboxyamide adenosine (^3H-CGS21680, from NEN) and 0.025 ml of test compound. […] Thereafter, the glass fiber filter was transferred to a vial, scintillator was added thereto, and the radioactivity on the filter was measured by a liquid scintillation counter. […]
Here, the total binding means ^3H-CGS21680-bound radioactivity in the […] of the test compound; the nonspecific binding means ^3H-CGS21680-bound radioactivity in the presence of 100 μM RPIA; and the binding in the […] of the test compound means ^3H-CGS21680-bound radioactivity in the […] of the test compound at predetermined concentrations. The inhibition constant (Ki value) in the table was determined from the formula of Cheng-Prusoff.

[2] = target: T3, human adenosine A1 receptor (Homo sapiens, UniProt P30542); assay: Measurement of the binding ability to adenosine A1 receptor (3H-CCPA displacement, CHOK1 membranes); conditions: read-out: K1(nM) A1
T3 construct: expressed in transfected cells; host or cells: CHOK1 cells (membrane sample)
T3 sequence (P30542 1-326): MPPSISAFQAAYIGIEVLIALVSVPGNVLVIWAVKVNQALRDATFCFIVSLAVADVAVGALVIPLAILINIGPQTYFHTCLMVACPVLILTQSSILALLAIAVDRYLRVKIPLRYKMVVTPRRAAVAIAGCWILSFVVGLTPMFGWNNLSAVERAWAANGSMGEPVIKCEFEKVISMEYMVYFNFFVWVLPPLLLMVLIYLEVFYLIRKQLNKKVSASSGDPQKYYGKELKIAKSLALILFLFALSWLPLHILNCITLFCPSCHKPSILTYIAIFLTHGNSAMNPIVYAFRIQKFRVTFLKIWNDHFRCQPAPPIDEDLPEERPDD
Procedure: Measurement of the Binding Ability to Adenosine A1 Receptor
A human adenosine A1 receptor cDNA was expressed in excess in CHOK1 cells, and this membrane sample was suspended at a protein concentration of 66.7 μg/ml in 20 mM HEPES buffer, pH 7.4 (10 mM MgCl2, 100 mM NaCl). To 0.45 ml of this membrane sample suspension were added 0.025 ml of 60 nM tritium-labeled chlorocyclopentyl adenosine (^3H—CCPA, from NEN Ltd.) and 0.025 ml of test compound. This mixture was left at 30° C. for 120 minutes, filtered rapidly under suction through a glass fiber filter (GF/B, from Whatman), and immediately washed twice with 5 ml of 50 mM water-cooled Tris-HCl buffer. Thereafter, the glass fiber filter was transferred to a vial, scintillator was added thereto, and the radioactivity on the filter was measured by a liquid scintillation counter. […]
In the above formula, the total binding means ^3H-CCPA-bound radioactivity in the absence of the test compound; the nonspecific binding means ^3H-CCPA-bound radioactivity in the presence of 100 μM RPIA ([R]-[1-methyl-2-phenylethyl] adenosine); and the binding in the presence of the test compound means ^3H-CCPA-bound radioactivity in the presence of the test compound at predetermined concentrations. The inhibition constant (Ki value) in the table was determined from the formula of Cheng-Prusoff.

IC50 [1] [nM] | Ki (adenosine A2A receptor) [nM] | Ki [2] [nM] | Structure (SMILES)
71 | 493 | 966 | Cn1c(N)nc(-c2ccco2)c(-c2ccncc2)c1=O [Example 7, 2-Amino-6-(2-furyl)-3-methyl-5-(4-pyridyl)-3,4-dihydro-4-pyrimidinone]
256 | 345 | 1110 | Nc1nc(-c2ccco2)c(-c2ccncc2)c(=O)[nH]1 [Example 2, 2-Amino-6-(2-furyl)-5-(4-pyridyl)-3,4-dihydro-4-pyrimidinone]
